Broadly, the IC50 is the midpoint of a concentration-inhibition curve.

Some results are limits rather than exact numbers.

T1 sequence (P21554 whole entry): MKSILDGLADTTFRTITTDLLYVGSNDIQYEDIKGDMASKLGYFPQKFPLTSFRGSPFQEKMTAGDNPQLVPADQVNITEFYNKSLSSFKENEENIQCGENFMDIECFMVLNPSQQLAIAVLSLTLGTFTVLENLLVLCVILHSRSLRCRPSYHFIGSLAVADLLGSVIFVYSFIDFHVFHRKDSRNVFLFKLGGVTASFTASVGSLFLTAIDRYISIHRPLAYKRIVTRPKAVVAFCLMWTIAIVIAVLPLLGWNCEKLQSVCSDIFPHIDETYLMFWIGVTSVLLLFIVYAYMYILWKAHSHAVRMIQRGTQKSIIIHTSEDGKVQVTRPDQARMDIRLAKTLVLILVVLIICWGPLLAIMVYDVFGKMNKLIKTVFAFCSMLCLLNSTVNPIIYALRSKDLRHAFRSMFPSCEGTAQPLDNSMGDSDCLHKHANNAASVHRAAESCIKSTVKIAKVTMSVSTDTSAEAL

One experiment has as its target T1, hCB1 (Homo sapiens, UniProt P21554).
T1 construct: made in house; host or cells: Sf9 insect cells (baculovirus), P2 membranes
Briefly: Agonist-induced GTP binding (GTPγ35S) assay at CB1, Example 8. The experiment is classed as biochemical. The settings on record: IC50 at CB1, determined as described in Example 8; read-out: IC50. The procedure, abridged:
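Membranes from Sf9 cells co-expressing hCB1 and heterotrimeric G-protein (10 μg protein) in Tris pH 7.4 buffer with 5 μM GDP. Test compounds (10^−10–10^−5 M) competed against 1 nM CP55,940 with […] GTPγ35S, 60 min at room temperature. Filter-bound radioactivity by scintillation, expressed as percent above basal.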
`CCc1ccc(NC(=O)Nc2cccc(C)c2)cc1` [Compound 289, N-(4-ethylphenyl)-N′-(3-methylphenyl)urea]: the 50% inhibitory concentration (IC50) is under 2000 nM. Turning to `CCc1ccc(NC(=O)Nc2ccc(C)cc2)cc1` [Compound 290, N-(4-ethylphenyl)-N′-(4-methylphenyl)urea], the IC50 was under 2000 nM. Take `CCCc1ccc(NC(=O)Nc2ccccc2)cc1` [Compound 291, N-phenyl-N′-(4-propylphenyl)urea]: the concentration for half-maximal inhibition (IC50) was under 2000 nM. `CCCc1ccc(NC(=O)Nc2cccc(C)c2)cc1` [Compound 292, 1-(3-methylphenyl)-3-(4-propylphenyl)urea]: the IC50 was under 2000 nM. On the same count and under the same terms, the value for `CCCc1ccc(NC(=O)Nc2ccc(C)cc2)cc1` [Compound 293, N-(4-methylphenyl)-N′-(4-propylphenyl)urea] was under 2000 nM.

Turning to `CCCCc1ccc(NC(=O)Nc2ccccc2)cc1` [Compound 294, N-(4-butylphenyl)-N′-phenylurea], the IC50 is under 2000 nM.

Consider `CCCCc1ccc(NC(=O)Nc2ccc(C)cc2)cc1` [Compound 295, N-(4-butylphenyl)-N′-(4-methylphenyl)urea], for which the IC50 was under 2000 nM. With `Cc1cccc(NC(=O)Nc2cccc(OC(C)C)c2)c1` [Compound 297, 1-(3-isopropoxyphenyl)-3-(3-methylphenyl)urea], the IC50 was under 2000 nM.

As for `Cc1ccc(NC(=O)Nc2cccc(OC(C)C)c2)cc1` [Compound 298, N-(3-isopropoxyphenyl)-N′-(4-methylphenyl)urea], the IC50 was under 2000 nM.

With `Cc1ccc(NC(=O)Nc2ccc(C(C)C)cc2)cc1` [Compound 300, 1-(4-isopropylphenyl)-3-(4-methylphenyl)urea], the IC50 was under 2000 nM. For the molecule `CCOc1ccc(NC(=O)Nc2cccc(C)c2)cc1` [Compound 302, 1-(4-ethoxyphenyl)-3-(3-methylphenyl)urea], the IC50 was under 2000 nM.

Consider `CCCOc1ccc(NC(=O)Nc2ccccc2)cc1` [Compound 303, N-phenyl-N′-(4-propoxyphenyl)urea], for which the IC50 was under 2000 nM. For `CCCOc1ccc(NC(=O)Nc2cccc(C)c2)cc1` [Compound 304, 1-(3-methylphenyl)-3-(4-propoxyphenyl)urea], the concentration for half-maximal inhibition (IC50) was under 2000 nM. Regarding `O=C(Nc1ccccc1)Nc1ccc(OC(F)F)cc1` [Compound 306, N-[4-(difluoromethoxy)phenyl]-N′-phenylurea], the IC50 is under 2000 nM.

Take `Cc1cccc(NC(=O)Nc2ccc(OC(F)F)cc2)c1` [Compound 307, N-[4-(difluoromethoxy)phenyl]-N′-(3-methylphenyl)urea]: the 50% inhibitory concentration (IC50) was under 2000 nM. On to `Cc1ccc(NC(=O)Nc2ccc(OC(F)F)cc2)cc1` [Compound 308, N-[4-(difluoromethoxy)phenyl]-N′-(4-methylphenyl)urea], for which the 50% inhibitory concentration (IC50) is under 2000 nM. On the same count and under the same terms, the value for `Cc1ccc(NC(=O)Nc2ccc(C)c(F)c2)cc1` [Compound 312, 1-(3-fluoro-4-methylphenyl)-3-(4-methylphenyl)urea] was under 2000 nM; that for `Cc1ccc(NC(=O)Nc2ccc(Cl)cc2)cc1` [Compound 314, N-(4-chlorophenyl)-N′-(4-methylphenyl)urea] was under 2000 nM. On to `O=C(Nc1ccccc1)Nc1ccc2c(c1)CCC2` [Compound 316, 1-(2,3-dihydro-1H-inden-5-yl)-3-phenylurea], for which the IC50 is under 2000 nM.

In the case of `Cc1cccc(NC(=O)Nc2ccc(N3CCOCC3)c(Cl)c2)c1` [Compound 318, 1-(3-chloro-4-morpholin-4-ylphenyl)-3-(3-methylphenyl)urea], the IC50 is under 2000 nM. For the molecule `Cc1cccc(NC(=O)Nc2ccc(-n3cnc(Cl)c3Cl)cc2)c1` [Compound 319, 1-[4-(4,5-dichloro-1H-imidazol-1-yl)phenyl]-3-(3-methylphenyl)urea], the IC50 was under 2000 nM.

For `Cc1ccc(NC(=O)Nc2ccc(-n3cnc(Cl)c3Cl)cc2)cc1` [Compound 320, 1-[4-(4,5-dichloro-1H-imidazol-1-yl)phenyl]-3-(4-methylphenyl)urea], the IC50 was under 2000 nM. As to `O=C(Nc1ccccc1)Nc1ccc(N2CCCCC2)cc1` [Compound 321, 1-phenyl-3-(4-piperidin-1-ylphenyl)urea], the IC50 was under 2000 nM. Take `Cc1ccc(NC(=O)Nc2ccc(N3CCCCC3)cc2)cc1` [Compound 322, 1-(4-methylphenyl)-3-(4-piperidin-1-ylphenyl)urea]: the IC50 is under 2000 nM. On to `Cc1ccc2nc(NC(=O)Nc3ccccc3)sc2c1` [Compound 323, 1-(6-methyl-1,3-benzothiazol-2-yl)-3-phenylurea], for which the IC50 was under 2000 nM.

On to `CCc1cccc(NC(=O)Nc2ccc(C)cc2)c1` [Compound 324, 1-(3-ethylphenyl)-3-(4-methylphenyl)urea], for which the IC50 was under 2000 nM. Regarding `CCc1ccc(NC(=O)Nc2ccc(F)cc2)cc1` [Compound 325, 1-(4-ethylphenyl)-3-(4-fluorophenyl)urea], the IC50 is under 2000 nM. On to `CC(C)c1ccc(NC(=O)Nc2ccc(F)cc2)cc1` [Compound 326, 1-(4-fluorophenyl)-3-(4-isopropylphenyl)urea], for which the IC50 was under 2000 nM. The same measure, in the same setting: the value for `CCCc1ccc(NC(=O)Nc2cccc(F)c2)cc1` [Compound 327, 1-(3-fluorophenyl)-3-(4-propylphenyl)urea] was under 2000 nM; that for `CCCc1ccc(NC(=O)Nc2ccc(F)cc2)cc1` [Compound 328, 1-(4-fluorophenyl)-3-(4-propylphenyl)urea] was under 2000 nM. In the case of `CCc1ccc(NC(=O)Nc2cccc(CC)c2)cc1` [Compound 329, 1-(3-ethylphenyl)-3-(4-ethylphenyl)urea], the half-inhibitory concentration (IC50) is under 2000 nM. Take `CCc1ccc(NC(=O)Nc2cccc(Cl)c2)cc1` [Compound 330, 1-(3-chlorophenyl)-3-(4-ethylphenyl)urea]: the half-maximal inhibitory concentration (IC50) is under 2000 nM. Consider `CCc1ccc(NC(=O)Nc2ccc(C(C)C)cc2)cc1` [Compound 332, 1-(4-ethylphenyl)-3-(4-isopropylphenyl)urea], for which the IC50 is under 2000 nM. With `CC(C)c1ccc(NC(=O)Nc2ccc(Cl)cc2)cc1` [Compound 333, 1-(4-chlorophenyl)-3-(4-isopropylphenyl)urea], the IC50 is under 2000 nM.

On to `CCCc1ccc(NC(=O)Nc2cccc(CC)c2)cc1` [Compound 334, 1-(3-ethylphenyl)-3-(4-propylphenyl)urea], for which the concentration for half-maximal inhibition (IC50) was under 2000 nM.

Turning to `CCCc1ccc(NC(=O)Nc2cccc(Cl)c2)cc1` [Compound 335, 1-(3-chlorophenyl)-3-(4-propylphenyl)urea], the IC50 was under 2000 nM. The same measure, in the same setting: the value for `CCCc1ccc(NC(=O)Nc2ccc(Cl)cc2)cc1` [Compound 336, 1-(4-chlorophenyl)-3-(4-propylphenyl)urea] was under 2000 nM.

Staying with this experiment, now noted: Table II; IC50 at CB1, GTP binding with 1 nM CP55,940; read-out: IC50.
On to `CC(=O)c1cccc(NC(=O)Nc2cccc(OC(F)F)c2)c1` [Compound 285, N-(3-acetylphenyl)-N′-[3-(difluoromethoxy)phenyl]urea], for which the IC50 was under 2000 nM. With `CC(=O)c1ccc(NC(=O)Nc2cccc(OC(F)F)c2)cc1` [Compound 286, N-(4-acetylphenyl)-N′-[3-(difluoromethoxy)phenyl]urea], the IC50 was under 2000 nM. The same measure, in the same setting: the value for `N#Cc1ccc(NC(=O)Nc2ccc(OC(F)F)cc2)cc1` [Compound 287, N-(4-cyanophenyl)-N′-[4-(difluoromethoxy)phenyl]urea] was under 2000 nM.

As for `CC(=O)c1ccc(NC(=O)Nc2ccc(OC(F)F)cc2)cc1` [Compound 288, N-(4-acetylphenyl)-N′-[4-(difluoromethoxy)phenyl]urea], the half-maximal inhibitory concentration (IC50) was under 2000 nM.

For the origin of these results see patent US20090239841A1, “Diaryl Ureas as CB1 Antagonists” (priority 2004, published 2009).
